Assay results published in publication PMC6726534 (Biotechnology and bioengineering, 2019).
Converted amounts (≈) assume the structure as drawn. Where a SMILES comes first, the peptide text is derived from it.

How the values were obtained:
Format in all cases: cell-based
[1] = system: Salmonella enterica serovar Enteritidis MH91989; details: serovar Enteritidis MH91989, 1 h
E. coli JW0013 = details: JW0013, 1 h
[2] = system: Salmonella enterica serovar Typhimurium ATCC SL1344; details: ATCC SL1344, 1 h
E. coli J2210 = details: J2210, 1 h
E. coli JJ2489 = details: JJ2489, 1 h

| SMILES | MIC [1] | MIC (E. coli JW0013) | MIC [2] | MIC (E. coli J2210) | MIC (E. coli JJ2489) |
| --- | --- | --- | --- | --- | --- |
| CC(C)C[C@H](NC(=O)[C@H](CCCNC(=N)N)NC(=O)[C@@H]1CCCN1C(=O)[C@H](CCCNC(=N)N)NC(=O)[C@@H]1CCCN1C(=O)[C@@H]1CCCN1C(=O)[C@H](CCCNC(=N)N)NC(=O)[C@@H]1CCCN1C(=O)[C@H](CCC(N)=O)NC(=O)[C@@H]1CCCN1C(=O)[C@H](CCCCN)NC(=O)[C@H](Cc1ccc(O)cc1)NC(=O)[C@@H](NC(=O)[C@@H]1CCCN1C(=O)[C@H](CCCNC(=N)N)NC(=O)[C@H](CC(N)=O)NC(=O)[C@H](CC(N)=O)NC(=O)CN)C(C)C)C(=O)O [Api_I8K/H15R] (H-GNNRPVYKPQPRPPRPRL-OH) | 0.096 ± 0.023 µM (≈ 0.206 µg/mL) | 0.062 ± 0.027 µM (≈ 0.133 µg/mL) | 0.192 ± 0.044 µM (≈ 0.411 µg/mL) | 0.252 ± 0.087 µM (≈ 0.54 µg/mL) |  |
| CC(C)C[C@H](NC(=O)[C@H](CCCNC(=N)N)NC(=O)[C@@H]1CCCN1C(=O)[C@H](CCCNC(=N)N)NC(=O)[C@@H]1CCCN1C(=O)[C@@H]1CCCN1C(=O)[C@H](CCCNC(=N)N)NC(=O)[C@@H]1CCCN1C(=O)[C@H](CCC(N)=O)NC(=O)[C@@H]1CCCN1C(=O)[C@H](CCCNC(=N)N)NC(=O)[C@H](Cc1ccc(O)cc1)NC(=O)[C@@H](NC(=O)[C@@H]1CCCN1C(=O)[C@H](CCCNC(=N)N)NC(=O)[C@H](CC(N)=O)NC(=O)[C@H](CC(N)=O)NC(=O)CN)C(C)C)C(=O)O [Api_I8R/H15R] (H-GNNRPVYRPQPRPPRPRL-OH) | 0.067 ± 0.033 µM (≈ 0.145 µg/mL) | 0.048 ± 0.011 µM (≈ 0.104 µg/mL) |  |  |  |
| CC[C@H](C)[C@H](NC(=O)[C@H](Cc1ccc(O)cc1)NC(=O)[C@@H](NC(=O)[C@@H]1CCCN1C(=O)[C@H](CCCCN)NC(=O)[C@H](CC(N)=O)NC(=O)[C@H](CC(N)=O)NC(=O)CN)C(C)C)C(=O)N1CCC[C@H]1C(=O)N[C@@H](CCC(N)=O)C(=O)N1CCC[C@H]1C(=O)N[C@@H](CCCNC(=N)N)C(=O)N1CCC[C@H]1C(=O)N1CCC[C@H]1C(=O)N[C@@H](CCCNC(=N)N)C(=O)N1CCC[C@H]1C(=O)N[C@@H](CCCNC(=N)N)C(=O)N[C@@H](CC(C)C)C(=O)O [Api_R4K/H15R] (H-GNNKPVYIPQPRPPRPRL-OH) | 0.067 ± 0.033 µM (≈ 0.141 µg/mL) | 0.048 ± 0.011 µM (≈ 0.101 µg/mL) | 0.126 ± 0.052 µM (≈ 0.265 µg/mL) | 0.133 ± 0.061 µM (≈ 0.279 µg/mL) | 0.067 ± 0.033 µM (≈ 0.141 µg/mL) |
| CC(C)C[C@H](NC(=O)[C@H](CCCNC(=N)N)NC(=O)[C@@H]1CCCN1C(=O)[C@H](CCCNC(=N)N)NC(=O)[C@@H]1CCCN1C(=O)[C@@H]1CCCN1C(=O)[C@H](CCCNC(=N)N)NC(=O)[C@@H]1CCCN1C(=O)[C@H](CCC(N)=O)NC(=O)[C@@H]1CCCN1C(=O)[C@H](CCCCN)NC(=O)[C@H](Cc1ccc(O)cc1)NC(=O)[C@@H](NC(=O)[C@@H]1CCCN1C(=O)[C@H](CCCCN)NC(=O)[C@H](CC(N)=O)NC(=O)[C@H](CC(N)=O)NC(=O)CN)C(C)C)C(=O)O [Api_R4K/I8K/H15R] (H-GNNKPVYKPQPRPPRPRL-OH) | 0.133 ± 0.061 µM (≈ 0.281 µg/mL) | 0.096 ± 0.023 µM (≈ 0.203 µg/mL) |  | 0.267 ± 0.097 µM (≈ 0.565 µg/mL) | 0.252 ± 0.087 µM (≈ 0.533 µg/mL) |
| CC(C)C[C@H](NC(=O)[C@H](CCCNC(=N)N)NC(=O)[C@@H]1CCCN1C(=O)[C@H](CCCNC(=N)N)NC(=O)[C@@H]1CCCN1C(=O)[C@@H]1CCCN1C(=O)[C@H](CCCNC(=N)N)NC(=O)[C@@H]1CCCN1C(=O)[C@H](CCC(N)=O)NC(=O)[C@@H]1CCCN1C(=O)[C@H](CCCNC(=N)N)NC(=O)[C@H](Cc1ccc(O)cc1)NC(=O)[C@@H](NC(=O)[C@@H]1CCCN1C(=O)[C@H](CCCCN)NC(=O)[C@H](CC(N)=O)NC(=O)[C@H](CC(N)=O)NC(=O)CN)C(C)C)C(=O)O [Api_R4K/I8R/H15R] (H-GNNKPVYRPQPRPPRPRL-OH) | 0.096 ± 0.023 µM (≈ 0.206 µg/mL) |  |  | 0.252 ± 0.087 µM (≈ 0.54 µg/mL) | 0.133 ± 0.061 µM (≈ 0.285 µg/mL) |
| CC[C@H](C)[C@H](NC(=O)[C@H](CCCNC(=N)N)NC(=O)[C@@H](N)CCCNC(=N)N)C(=O)N[C@@H](CCCNC(=N)N)C(=O)N[C@@H](CCCCN)C(=O)N[C@@H](CCCNC(=N)N)C(=O)N1CCC[C@H]1C(=O)N1CCC[C@H]1C(=O)N[C@@H](CCCNC(=N)N)C(=O)N[C@@H](CC(C)C)C(=O)N1CCC[C@H]1C(=O)N[C@@H](CCCNC(=N)N)C(=O)N1CCC[C@H]1C(=O)N[C@@H](CCCNC(=N)N)C(=O)N1CCC[C@H]1C(=O)N[C@@H](CCCCN)C(=O)O [Bac_P5K/R16K] (H-RRIRKRPPRLPRPRPK-OH) | 0.120 ± 0.028 µM (≈ 0.25 µg/mL) | 0.060 ± 0.014 µM (≈ 0.125 µg/mL) | 0.120 ± 0.028 µM (≈ 0.25 µg/mL) | 0.157 ± 0.054 µM (≈ 0.326 µg/mL) | 0.120 ± 0.028 µM (≈ 0.25 µg/mL) |
| CC[C@H](C)[C@H](NC(=O)[C@H](CCCNC(=N)N)NC(=O)[C@@H](N)CCCNC(=N)N)C(=O)N[C@@H](CCCCN)C(=O)N[C@@H](CCCCN)C(=O)N[C@@H](CCCNC(=N)N)C(=O)N1CCC[C@H]1C(=O)N1CCC[C@H]1C(=O)N[C@@H](CCCNC(=N)N)C(=O)N[C@@H](CC(C)C)C(=O)N1CCC[C@H]1C(=O)N[C@@H](CCCNC(=N)N)C(=O)N1CCC[C@H]1C(=O)N[C@@H](CCCNC(=N)N)C(=O)N1CCC[C@H]1C(=O)N[C@@H](CCCCN)C(=O)O [Bac_R4K/P5K/R16K] (H-RRIKKRPPRLPRPRPK-OH) | 0.167 ± 0.061 µM (≈ 0.343 µg/mL) | 0.060 ± 0.014 µM (≈ 0.123 µg/mL) | 0.120 ± 0.028 µM (≈ 0.246 µg/mL) | 0.167 ± 0.061 µM (≈ 0.343 µg/mL) | 0.120 ± 0.028 µM (≈ 0.246 µg/mL) |
| CC[C@H](C)[C@H](NC(=O)[C@H](CCCNC(=N)N)NC(=O)[C@@H](N)CCCNC(=N)N)C(=O)N[C@@H](CCCCN)C(=O)N[C@@H](CCCCN)C(=O)N[C@@H](CCCNC(=N)N)C(=O)N1CCC[C@H]1C(=O)N1CCC[C@H]1C(=O)N[C@@H](CCCNC(=N)N)C(=O)N[C@@H](CC(C)C)C(=O)N1CCC[C@H]1C(=O)N[C@@H](CCCNC(=N)N)C(=O)N1CCC[C@H]1C(=O)N[C@@H](CCCNC(=N)N)C(=O)N1CCC[C@H]1C(=O)N[C@@H](CCCNC(=N)N)C(=O)O [Bac_R4K/P5K] (H-RRIKKRPPRLPRPRPR-OH) | 0.120 ± 0.028 µM (≈ 0.25 µg/mL) | 0.060 ± 0.014 µM (≈ 0.125 µg/mL) | 0.120 ± 0.028 µM (≈ 0.25 µg/mL) | 0.157 ± 0.054 µM (≈ 0.326 µg/mL) | 0.120 ± 0.028 µM (≈ 0.25 µg/mL) |
| CC[C@H](C)[C@H](NC(=O)[C@H](CCCNC(=N)N)NC(=O)[C@@H](N)CCCNC(=N)N)C(=O)N[C@@H](CCCCN)C(=O)N1CCC[C@H]1C(=O)N[C@@H](CCCNC(=N)N)C(=O)N1CCC[C@H]1C(=O)N1CCC[C@H]1C(=O)N[C@@H](CCCNC(=N)N)C(=O)N[C@@H](CC(C)C)C(=O)N1CCC[C@H]1C(=O)N[C@@H](CCCNC(=N)N)C(=O)N1CCC[C@H]1C(=O)N[C@@H](CCCNC(=N)N)C(=O)N1CCC[C@H]1C(=O)N[C@@H](CCCCN)C(=O)O [Bac_R4K/R16K] (H-RRIKPRPPRLPRPRPK-OH) | 0.157 ± 0.054 µM (≈ 0.317 µg/mL) | 0.060 ± 0.014 µM (≈ 0.121 µg/mL) | 0.120 ± 0.028 µM (≈ 0.242 µg/mL) | 0.120 ± 0.028 µM (≈ 0.242 µg/mL) | 0.120 ± 0.028 µM (≈ 0.242 µg/mL) |
| CC[C@H](C)[C@H](NC(=O)[C@H](CCCNC(=N)N)NC(=O)[C@@H](N)CCCNC(=N)N)C(=O)N[C@@H](CCCNC(=N)N)C(=O)N1CCC[C@H]1C(=O)N[C@@H](CCCNC(=N)N)C(=O)N1CCC[C@H]1C(=O)N1CCC[C@H]1C(=O)N[C@@H](CCCNC(=N)N)C(=O)N[C@@H](CC(C)C)C(=O)N1CCC[C@H]1C(=O)N[C@@H](CCCNC(=N)N)C(=O)N1CCC[C@H]1C(=O)N[C@@H](CCCNC(=N)N)C(=O)N1CCC[C@H]1C(=O)N[C@@H](CCCNC(=N)N)C(=O)O [Bac_WT, reference compound] (H-RRIRPRPPRLPRPRPR-OH) | 0.120 ± 0.028 µM (≈ 0.249 µg/mL) |  | 0.060 ± 0.014 µM (≈ 0.125 µg/mL) | 0.120 ± 0.028 µM (≈ 0.249 µg/mL) | 0.120 ± 0.028 µM (≈ 0.249 µg/mL) |
